Experimental data as given in article PMC4236014, “Intestine-Targeted DGAT1 Inhibition Improves Obesity and Insulin Resistance without Skin Aberrations in Mice” (PLoS ONE, 2014).
Several values for one entry are separate records, joined by “and”; a condition that tells them apart may be missing. Equal entries are not always repeated. Entries after “also recorded” stand apart in the source; their conditions may differ.

What was measured:
[1] = system: HepG2 human liver cells; test: Triglyceride synthesis in HepG2 cells (14C oleic acid incorporation); assay type: cell-based; details: Compound A 0.3 to 3 µM, Compound B 0.1 to 3 µM
Procedure: (§1) The HT-29 cell line (American Type Culture Collection, Manassas, VA) was maintained in the McCoy’s 5A medium (Life Technologies, Carlsbad, CA) containing 10% fetal bovine serum. The HepG2 cell line (American Type Culture Collection) was maintained in the Dulbecco’s Modified Eagle Medium (Sigma-Aldrich, St. Louis, MO) containing 10% fetal bovine serum. For the experiments, the HT-29 cells were plated in 12-well plates at 3×10^5 cells, the HepG2 cells were plated in 12-well plates at 5×10^5 cells. The cells were cultured in serum-free media for 24 h, and incubated with a compound and oleic acid-albumin (Sigma-Aldrich) solubilized in dimethyl sulfoxide (final 0.1%) for 30 min. The triglyceride synthesis was initiated by the addition of ^14C oleic acid (0.2 µCi). The cells were washed in PBS and harvested into the organic phase using hexane:2-propanol (3∶2) 30 min after initiation of the triglyceride synthesis. The solvent was evaporated, the extracts were solubilized in chloroform, and lipids were separated via TLC. Incorporation of the radiolabel into the triglyceride fraction was analyzed using BAS2000 in triplicate. The IC50 of each compound was calculated using GraphPad Prism.

[2] = system: HT-29 human colon cells; test: Triglyceride synthesis in HT-29 cells (14C oleic acid incorporation); assay type: cell-based; details: Compound A 0.3 to 3 µM, Compound B 0.1 to 3 µM
Procedure: as §1

[3] = Log D (lipophilicity); assay type: physicochemical
[4] = system: skin of diet-induced-obese (DIO) mice; test: Effects on the skin in diet-induced-obese (DIO) mice, 4-week treatment, histopathology; assay type: in vivo, C57BL/6J mice; details: 4 weeks; for skin aberrations (histopathology): oral, 30 mg/kg Compound A once daily, 30 mg/kg Compound B twice daily, 30 mg/kg
Procedure: After 10 weeks on high-fat diet, mice became obese (36±0.24 g). […] After 4 weeks of the treatment, all the animals were sacrificed. The skin (dorsolateral lesion) was removed and then fixed in 10% neutral buffered formalin, processed, embedded in paraffin, cut into thin sections and stained with Hematoxylin and Eosin. Histopathological examinations were performed. The size of the sebaceous glands were measured using WinROOF (Mitani Corporation, Tokyo, Japan).

[5] = system: mouse skin homogenates; test: Triglyceride synthesis in mouse skin homogenates; assay type: biochemical
[6] = Compound distribution in mice (plasma, skin, intestine) after oral 30 mg/kg; assay type: in vivo, C57BL/6J mice; details: for Tmax / concentration at 24 h / Kp / Cmax: C57BL/6J, mouse; for Tmax: in vivo; for concentration at 24 h: intestine, 24 h after administration, read-out: C 24 in intestine; for Kp: intestine/plasma, read-out: Intestine/Plasma ratio at T max; for Cmax: plasma, read-out: C max in plasma; for Cmax / C max in intestine / C max in skin: 3 mice
Procedure: Exposure was analyzed using blood, skin, and intestine samples from the C57BL/6J mice orally treated with 30 mg/kg of a compound. At 1, 4, 8, and 24 h after the administration, mice were anesthetized with isoflurane, and blood, skin, and intestine samples were collected. Three mice were used in each group. The blood samples were collected with sodium heparin, subjected to centrifugation, and plasma samples were collected. The skin and the intestine were homogenized and centrifuged to collect samples. The compound concentrations in each tissue sample with values equal to or greater than the lower limit of quantification (LLOQ; 0.005 µg/ml) were used for analyses (HPLC-MS/MS: Shiseido, Tokyo, Japan, Thermofisher Scientific, Waltham, MA).

[7] = mouse plasma protein binding; assay type: in vitro ADME
[8] = biological target: T1, mouse DGAT1 (Mus musculus, UniProt Q9Z2A7); test: DGAT1 enzyme assay (mouse DGAT1 in Sf9 insect microsomes, 14C decanoyl CoA); assay type: biochemical; details: enzyme expressed in insect microsomes; read-out: mDGAT1 IC50
T1 construct: made in house; host or cells: Sf9 insect cells (baculovirus)
T1 sequence (Q9Z2A7 1-498): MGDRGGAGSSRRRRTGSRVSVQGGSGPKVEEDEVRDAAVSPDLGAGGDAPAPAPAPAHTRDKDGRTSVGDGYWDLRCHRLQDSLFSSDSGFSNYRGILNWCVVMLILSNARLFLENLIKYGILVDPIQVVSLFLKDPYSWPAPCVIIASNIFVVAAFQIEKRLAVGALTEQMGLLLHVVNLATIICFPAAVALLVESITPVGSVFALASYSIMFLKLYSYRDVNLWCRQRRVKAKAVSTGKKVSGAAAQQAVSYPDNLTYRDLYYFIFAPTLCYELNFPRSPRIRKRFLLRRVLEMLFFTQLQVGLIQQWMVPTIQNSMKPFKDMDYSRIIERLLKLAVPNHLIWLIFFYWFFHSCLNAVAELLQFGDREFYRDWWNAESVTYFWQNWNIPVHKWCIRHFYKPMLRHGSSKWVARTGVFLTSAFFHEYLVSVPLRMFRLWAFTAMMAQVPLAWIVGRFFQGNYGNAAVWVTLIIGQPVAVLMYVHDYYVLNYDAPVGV
Procedure: (§2) The effects of the DGAT1 inhibitors were assessed using human (BC015762 from HeLa cell) and mouse DGAT1 (NM_010046 from mouse testis) in Sf9 insect microsomes. […] The Sf9 cells were homogenized and centrifuged at 600 g for 20 min. Thereafter, the supernatant was centrifuged at 10000 g for 1 h and the precipitate was collected as the […].
(§3) The mixture was incubated at room temperature for 45 min. The reaction was stopped by adding 0.5 M HCl and the incubated mixture was filtered using MultiscreenHTS-FB (Millipore, Billerica, MA). The human DGAT1 activity was quantified by counting the radioactivity of synthesized ^14C triglycerides by the Microbeta scintillation counter (PerkinElmer, Waltham, MA) in duplicate. […] Mouse DGAT1 enzyme assays were carried out in the same way.

[9] = system: postprandial hyperlipidemia in mice; test: Postprandial hyperlipidemia in mice (corn oil load); assay type: in vivo, C57BL/6J mice
Procedure: Eight-week-old male C57BL/6J mice were divided into treatment groups, each consisting of 7–8 mice, based on the body weight for the purpose of simplification of dose calculation. […] Blood samples were collected 1, 2, and 3 h later, and the plasma triglyceride level was determined by using WAKO TG H (Wako, Osaka, Japan). The area under the curve (AUC) of plasma triglyceride (AUCtriglyceride) was calculated.

[10] = biological target: T2, human DGAT1 (Homo sapiens, UniProt O75907); test: DGAT1 enzyme assay (human DGAT1 in Sf9 insect microsomes, 14C decanoyl CoA); assay type: biochemical; details: enzyme expressed in insect microsomes; read-out: hDGAT1 IC50
T2 construct: made in house; host or cells: Sf9 insect cells (baculovirus)
T2 sequence (O75907 1-488): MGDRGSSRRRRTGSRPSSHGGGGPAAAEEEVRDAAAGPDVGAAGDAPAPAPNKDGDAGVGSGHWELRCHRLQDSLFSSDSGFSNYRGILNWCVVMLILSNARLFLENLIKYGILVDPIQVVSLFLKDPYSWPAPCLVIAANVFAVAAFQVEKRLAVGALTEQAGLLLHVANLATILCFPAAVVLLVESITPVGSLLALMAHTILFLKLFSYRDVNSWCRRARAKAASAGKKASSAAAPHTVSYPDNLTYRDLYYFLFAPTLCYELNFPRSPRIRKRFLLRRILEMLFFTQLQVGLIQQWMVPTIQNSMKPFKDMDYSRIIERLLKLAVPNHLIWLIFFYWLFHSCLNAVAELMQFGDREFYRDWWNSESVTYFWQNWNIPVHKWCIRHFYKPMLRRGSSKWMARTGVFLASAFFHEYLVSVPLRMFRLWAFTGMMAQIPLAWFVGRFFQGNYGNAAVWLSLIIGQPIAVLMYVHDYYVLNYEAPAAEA
Procedure: as §2, §3

[11] = system: diet-induced-obese (DIO) mice; test: Long-time (4-week) treatment in DIO mice; assay type: in vivo, C57BL/6J mice; details: 4 weeks
Procedure: The DIO mice were fed with high-fat diet during the 4-week treatment period. Mice were fasted for 4 hours prior to blood collection. Plasma glucose, insulin, triglyceride, and free fatty acid concentrations were determined by using Glucose CII Test Wako (Wako), ultra sensitive mouse ELISA (Morinaga, Yokohama, Japan), L type WAKO TG H, and HA test WAKO NEFA (Wako), respectively.

[12] = system: glucagon-like peptide-1 (GLP-1) secretion; test: GLP-1 secretion in mice after corn oil; assay type: in vivo; details: oral 10 and 30 mg/kg, 2 h after corn oil
Procedure: Mice were divided into treatment groups, each consisting of 6–8 mice, based on the body weight for the purpose of simplification of dose calculation. […] Blood samples were collected 2 h later, and the plasma GLP-1 level was determined by using Glucagon Like Peptide-1 (Active) ELISA Kit (Linco Research, Inc., St. Charles, MO).

logD [3] | Tmax [6] [h] | concentration at 24 h ([6]; means ± SD) [µM] | Kp ([6]; means ± SD) | Cmax ([6]; means ± SD) [µM] | C max in intestine ([6]; means ± SD) [µmol/kg] | C max in skin ([6]; means ± SD) [µmol/kg] | fraction unbound [7] | Structure (SMILES) | inhibition of cellular triglyceride synthesis [1] | inhibition of cellular triglyceride synthesis [2] | skin aberrations (histopathology) [4] | inhibition of triglyceride synthesis [5] | other results
< 0.9 | 1 | 24 ± 1.6 | 0.32 | 240 ± 59 | 77 ± 37 | 14 ± 0.62 | 0.032 | CC1(C)Oc2ncnc(N)c2N=C1c1ccc([C@H]2CC[C@H](CC(=O)O)CC2)cc1 [Compound A, 4-[4-(4-amino-2,7,7-trimethyl-7H-pyrimido[4,5-b][1], [4]oxazin-6-yl)phenyl]-trans-Cyclohexaneacetic acid] | at all the concentrations tested | significant inhibition was observed at 1 and 3 µM | skin aberrations derived from atrophy of the sebaceous gland; also recorded: moderate skin aberrations | inhibited the cellular triglyceride synthesis | injurious or inflammatory changes of the skin ([4]; 30 mg/kg once daily): no injurious or inflammatory changes; recovery of skin aberrations after compound withdrawal ([4]; 30 mg/kg once daily, then withdrawal): 2 weeks
< 0.9 | 1 | 19 ± 3.7 | 10 | 9.1 ± 2.3 | 92 ± 36 | 1.3 ± 0.51 | 0.001 | O=C(Nc1ccccc1)Nc1ccc(-c2ccc(C(=O)[C@@H]3CCC[C@H]3C(=O)O)cc2)cc1 [Compound B, (1R, 2R)-2-[[4′-[[(Phenylamino)carbonyl]amino][1,1′-biphenyl]-4-yl]carbonyl]cyclopentanecarboxylic acid] | at all the concentrations tested | significant inhibition was observed at 1 and 3 µM | changes in the skin were not observed; also recorded: no skin aberrations | inhibited the cellular triglyceride synthesis | IC50 [8]: 15.5 nM; plasma triglyceride levels after corn oil ([9]; oral 0.3, 1, 3 or 10 mg/kg 12 h before 3 ml/kg corn oil): reduced plasma triglyceride levels with a dose-dependent tendency; dose of maximum efficacy on plasma triglyceride ([9]; oral, 12 h before corn oil): 10 mg/kg; IC50 [10]: 8.4 nM; skin/IC50 (C max in skin/mDGAT1 IC50) ([6]; means ± SD): 0.084±0.033; Intestine/Plasma ratio at T max ([6]; means ± SD, 30 mg/kg): 10±2.8; Intestine/Skin ratio at T max ([6]; means ± SD, 30 mg/kg): 74 and 74±8.4; fatty liver (histological analysis) ([11]; 10 or 30 mg/kg): attenuated fatty liver; body weight gain ([11]; oral 1, 3, 10 or 30 mg/kg twice daily): significant attenuation and significant reduction were observed at 10 mg/kg and 30 mg/kg, respectively; concentration of total-cholesterol in the liver ([11]; oral twice daily): significant reduction was observed at 30 mg/kg; concentration of triglyceride in the liver ([11]; oral twice daily): significant reduction was observed at 30 mg/kg; liver weight ([11]; oral twice daily): lack of differences in the liver weight among the groups; plasma glucose levels ([11]; oral twice daily): significant reduction was observed at 30 mg/kg; plasma insulin concentrations ([11]; oral twice daily): tended to decrease; weight of epididymal fat ([11]; oral twice daily): significant reduction was observed at 30 mg/kg; weight of mesenteric fat ([11]; oral twice daily): significant reduction was observed at 30 mg/kg; plasma GLP-1 levels after corn oil administration [12]: increased plasma glucagon-like peptide-1 (GLP-1) levels
